# Measured values taken from patent US7718809B2, “Chromane substituted benzimidazole derivatives as acid pump antagonists” (RaQualia Pharma Inc., priority 2005, dated 2010).
# Columns and labels:
# [1] = molecular target: T1, porcine gastric H+/K+-ATPase (Sus scrofa, UniProt P19156); assay: Ion-tight porcine gastric H+/K+-ATPase inhibition; type: biochemical; details: ion-tight gastric vesicles, 150 mM KCl, valinomycin, pH 7.4, 37° C.
# T1 construct: prepared from mucous membrane in fresh porcine stomachs by homogenization; from tissue; host or cells: mucous membrane of fresh porcine stomachs (gastric vesicles)
# T1 sequence (P19156 2-1034 limits assumed): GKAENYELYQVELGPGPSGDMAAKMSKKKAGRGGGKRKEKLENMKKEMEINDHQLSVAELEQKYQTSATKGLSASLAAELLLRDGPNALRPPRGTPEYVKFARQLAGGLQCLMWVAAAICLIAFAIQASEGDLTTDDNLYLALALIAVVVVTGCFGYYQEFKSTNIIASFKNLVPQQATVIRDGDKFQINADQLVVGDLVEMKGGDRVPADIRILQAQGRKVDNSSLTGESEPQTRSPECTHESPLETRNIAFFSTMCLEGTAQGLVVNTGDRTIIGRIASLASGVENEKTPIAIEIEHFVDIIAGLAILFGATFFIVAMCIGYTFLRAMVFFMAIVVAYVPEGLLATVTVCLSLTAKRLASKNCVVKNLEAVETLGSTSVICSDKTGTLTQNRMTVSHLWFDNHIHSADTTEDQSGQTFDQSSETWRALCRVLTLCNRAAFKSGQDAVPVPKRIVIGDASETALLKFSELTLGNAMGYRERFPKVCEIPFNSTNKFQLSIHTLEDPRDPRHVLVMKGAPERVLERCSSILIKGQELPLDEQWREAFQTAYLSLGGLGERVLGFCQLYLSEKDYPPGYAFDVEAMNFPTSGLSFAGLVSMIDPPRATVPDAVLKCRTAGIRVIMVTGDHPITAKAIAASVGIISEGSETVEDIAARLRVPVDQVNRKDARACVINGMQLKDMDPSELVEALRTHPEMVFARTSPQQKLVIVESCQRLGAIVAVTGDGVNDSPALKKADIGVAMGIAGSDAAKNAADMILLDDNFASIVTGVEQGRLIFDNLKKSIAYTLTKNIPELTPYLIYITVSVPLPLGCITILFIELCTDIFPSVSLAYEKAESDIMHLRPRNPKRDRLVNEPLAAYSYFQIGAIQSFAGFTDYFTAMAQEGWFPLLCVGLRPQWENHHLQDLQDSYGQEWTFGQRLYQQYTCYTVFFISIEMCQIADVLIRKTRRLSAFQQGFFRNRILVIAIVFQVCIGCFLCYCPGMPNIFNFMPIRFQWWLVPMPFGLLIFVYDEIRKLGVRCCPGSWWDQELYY
# T1 sequence (P18434 whole entry partner): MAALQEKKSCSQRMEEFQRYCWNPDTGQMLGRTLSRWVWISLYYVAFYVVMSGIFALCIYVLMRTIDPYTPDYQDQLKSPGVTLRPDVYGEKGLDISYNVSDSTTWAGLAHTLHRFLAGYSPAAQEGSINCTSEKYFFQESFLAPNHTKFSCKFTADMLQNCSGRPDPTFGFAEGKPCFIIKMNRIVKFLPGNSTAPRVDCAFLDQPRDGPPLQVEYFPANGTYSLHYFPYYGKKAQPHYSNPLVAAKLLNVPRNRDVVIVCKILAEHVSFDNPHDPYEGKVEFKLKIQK
# Procedure: The porcine gastric vesicles for Porcine gastric H^+/K^+-ATPase inhibition assays were prepared from mucous membrane in fresh porcine stomachs by homogenization with a tight-fitted polytetrafluoroethylene (Teflone®) homogenizer in 0.25 M sucrose at 4° C. The crude pellet was removed with centrifugation at 20,000 g for 30 min. Then supernatant was centrifuged at 100,000 g for 30 min. The resulting pellet was re-suspended in 0.25 M sucrose, and then subjected to density gradient centrifugation at 132,000 g for 90 min. The gastric vesicles were collected from interface on 0.25 M sucrose layer containing 7% Ficoll™ PM400(Amersham Biosciences). This procedure was performed in a cold room.
# Ion-tight porcine gastric H^+/K^+-ATPase inhibition was measured according to the modified method described in Biochemical Pharmacology, 1988, 37, 2231-2236.
# The isolated vesicles were kept in deep-freezer until use. For enzyme assay, vesicles were diluted with 3 mM MgSO4 containing 5 mM Tris (pH 7.4 at 37° C).
# Enzyme reaction was performed incubating 150 mM KCl, 3 mM Na2ATP, 3 mM MgSO4, 15 μM valinomycin and 3.0 μg of vesicles for 30 minutes at 37° C. in a final 60 μl of reaction mixture (5 mM Tris, pH 7.4) with or without the test compound. Enzyme reaction was stopped by adding 10% SDS. Released inorganic phosphate from ATP was detected by incubating with mixture of 1 part of 35 mM ammonium molybdate tetrahydrate in 15 mM Zinc acetate hydrate and 4 parts of 10% ascorbic acid (pH 5.0), resulting in phosphomolybdate, which has optical density at 750 nm.
# gastric acid secretion = assay: Inhibition of gastric acid secretion in the Heidenhain pouch dog; type: in vivo, Beagle dogs; details: histamine-stimulated (80 μg/kg/h) acid secretion, oral or intravenous bolus administration
# Procedure: Male Beagle dogs weighing 7-15 kg with Heidenhain pouch [Heidenhain R: Arch Ges Physiol. 1879; 19: 148-167] were used. The animals were allowed to recover from surgery for at least three weeks before the experiments. The animals were kept at a 12 hour light-dark rhythm, housed singly. They received standard food once daily at 11:00 a.m. and tap water ad libitum, and were fasted overnight prior to the experiment, with free access to water. Gastric juice samples were collected throughout the experiment by gravity drainage every 15 min. Acidity in the gastric juice was measured by titration to the end point of pH 7.0. Acid secretion was stimulated by a continuous intravenous infusion of histamine (80 μg/kg/h). Oral or intravenous bolus administration of the test compounds was done 90 minutes after commencement of the histamine infusion. The acid secretion was monitored after the administration. The activity was evaluated by the maximum inhibition relative to the corresponding control value.
smiles,measurement,setting,value
"Cc1nc2c(OC3CCOc4cc(F)ccc43)cc(C(=O)N(C)C)cc2n1C (racemic) [Example 2, 4-[(7-Fluoro-3,4-dihydro-2H-chromen-4-yl)oxy]-N,N,1,2-tetramethyl-1H-benzimidazole-6-carboxamide]",IC50,[1],69 nM
"Cc1nc2c(OC3CCOc4cc(F)cc(F)c43)cc(C(=O)N(C)C)cc2n1C (racemic) [Example 5, 4-[(5,7-Difluoro-3,4-dihydro-2H-chromen-4-yl)oxy]-N,N,1,2-tetramethyl-1H-benzimidazole-6-carboxamide]",IC50,[1],90 nM
"Cc1nc2c(OC3CCOc4cccc(F)c43)cc(C(=O)N(C)C)cc2n1C (racemic) [Example 9, 4-[(5-Fluoro-3,4-dihydro-2H-chromen-4-yl)oxy]-N,N,1,2-tetramethyl-1H-benzimidazole-6-carboxamide]",IC50,[1],960 nM
"CNC(=O)c1cc(OC2CCOc3cc(F)cc(F)c32)c2nc(C)n(C)c2c1 (racemic) [Example 19, 4-[(5,7-Difluoro-3,4-dihydro-2H-chromen-4-yl)oxy]-N,1,2-trimethyl-1H-benzimidazole-6-carboxamide]",IC50,[1],680 nM
"Cc1nc2c(OC3CCOc4cc(F)cc(F)c43)cc(C(=O)N3CCC3)cc2n1C (racemic) [Example 22, 6-(Azetidin-1-ylcarbonyl)-4-[(5,7-difluoro-3,4-dihydro-2H-chromen-4-yl)oxy]-1,2-dimethyl-1H-benzimidazole]",IC50,[1],180 nM
"Cc1nc2c(OC3CCOc4cc(F)ccc43)cc(C(=O)N(C)C)cc2n1C (single isomer, unassigned; (+)) [Example 4, (+)-4-[(7-Fluoro-3,4-dihydro-2H-chromen-4-yl)oxy]-N,N,1,2-tetramethyl-1H-benzimidazole-6-carboxamide]",IC50,[1],440 nM
"Cc1nc2c(OC3CCOc4cc(F)cc(F)c43)cc(C(=O)N(C)C)cc2n1C (single isomer, unassigned; (+)) [Example 7, (+)-4-[(5,7-Difluoro-3,4-dihydro-2H-chromen-4-yl)oxy]-N,N,1,2-tetramethyl-1H-benzimidazole-6-carboxamide]",IC50,[1],220 nM
"Cc1nc2c(OC3CCOc4cccc(F)c43)cc(C(=O)N(C)C)cc2n1C (single isomer, unassigned; (+)) [Example 18, (+)-4-{[5-Fluoro-3,4-dihydro-2H-chromen-4-yl]oxy}-N,N,1,2-tetramethyl-1H-benzimidazole-6-carboxamide]",IC50,[1],240 nM
"CNC(=O)c1cc(OC2CCOc3cc(F)cc(F)c32)c2nc(C)n(C)c2c1 (single isomer, unassigned; (+)) [Example 21, (+)-4-[(5,7-Difluoro-3,4-dihydro-2H-chromen-4-yl)oxy]-N,1,2-trimethyl-1H-benzimidazole-6-carboxamide]",IC50,[1],490 nM
"Cc1nc2c(OC3CCOc4cc(F)cc(F)c43)cc(C(=O)N3CCC3)cc2n1C (single isomer, unassigned; (+)) [Example 24, (+)-6-(Azetidin-1-ylcarbonyl)-4-[(5,7-difluoro-3,4-dihydro-2H-chromen-4yl)oxy]-1,2-dimethyl-1H-benzimidazole]",IC50,[1],620 nM
"Cc1nc2c(OC3CCOc4cc(F)ccc43)cc(C(=O)N(C)C)cc2n1C (single isomer, unassigned; (-)) [Example 3, (−)-4-[(7-Fluoro-3,4-dihydro-2H-chromen-4-yl)oxy]-N,N,1,2-tetramethvl-1H-benzimidazole-6-carboxamide]",IC50,[1],440 nM
"Cc1nc2c(OC3CCOc4cc(F)cc(F)c43)cc(C(=O)N(C)C)cc2n1C (single isomer, unassigned; (-)) [Example 6, (−)-4-[(5,7-Difluoro-3,4-dihydro-2H-chromen-4-yl)oxy]-N,N,1,2-tetramethyl-1H-benzimidazole-6-carboxamide]",IC50,[1],210 nM
same,inhibitory activity (maximum inhibition of acid secretion relative to control),gastric acid secretion,good inhibitory activity
"Cc1nc2c(OC3CCOc4cccc(F)c43)cc(C(=O)N(C)C)cc2n1C (single isomer, unassigned; (-)) [Example 17, (−)-4-{[5-Fluoro-3,4-dihydro-2H-chromen-4-yl]oxy}-N,N,1,2-tetramethyl-1H-benzimidazole-6-carboxamide]",IC50,[1],340 nM
"CNC(=O)c1cc(OC2CCOc3cc(F)cc(F)c32)c2nc(C)n(C)c2c1 (single isomer, unassigned; (-)) [Example 20, (−)-4-[(5,7-Difluoro-3,4-dihydro-2H-chromen-4-yl)oxy]-N,1,2-trimethyl-1H-benzimidazole-6-carboxamide]",IC50,[1],610 nM
"Cc1nc2c(OC3CCOc4cc(F)cc(F)c43)cc(C(=O)N3CCC3)cc2n1C (single isomer, unassigned; (-)) [Example 23, (−)-6-(Azetidin-1-ylcarbonyl)-4-[(5,7-difluoro-3,4-dihydro-2H-chromen-4-yl)oxy]-1,2-dimethyl-1H-benzimidazole]",IC50,[1],440 nM
"Cc1nc2c(OC3CCOc4ccccc43)cc(C(=O)N(C)C)cc2n1C (stereo not drawn) [Example 1, 4-(3,4-Dihydro-2H-chromen-4-yloxy)-N,N,1,2-tetramethyl-1H-benzimidazole-6-carboxamide]",IC50,[1],560 nM
"Cc1cccc2c1C(Oc1cc(C(=O)N(C)C)cc3c1nc(C)n3C)CCO2 (stereo not drawn) [Example 8, N,N,1,2-Tetramethyl-4-[(5-methyl-3,4-dihydro-2H-chromen-4-yl)oxy]-1H-benzimidazole-6-carboxamide]",IC50,[1],180 nM
"Cc1nc2c(OC3COCc4ccccc43)cc(C(=O)N(C)C)cc2n1C (stereo not drawn) [Example 10, 4-(3,4-Dihydro-1H-isochromen-4-yloxy)-N,N,1,2-tetramethvl-1H-benzimidazole-6-carboxamide]",IC50,[1],320 nM
"Cc1nc2c(OC3CCOc4ccccc43)cc(C(=O)N(C)CCO)cc2n1C (stereo not drawn) [Example 11, 4-(3,4-Dihydro-2H-chromen-4-yloxy)-N-(2-hydroxyethyl)-N,1,2-trimethyl-1H-benzimidazole-6-carboxamide]",IC50,[1],430 nM
"Cc1nc2c(OC3CCOc4ccccc43)cc(C(=O)N3CC[C@H](O)C3)cc2n1C (stereo partly drawn) [Example 12, (3S)-1-{[4-(3,4-Dihydro-2H-chromen-4-yloxy)-1,2-dimethyl-1H-benzimidazol-6-yl]carbonyl}pyrrolidin-3-ol]",IC50,[1],670 nM
"Cc1nc2c(OC3CCOc4ccccc43)cc(C(=O)N3CC[C@@H](O)C3)cc2n1C (stereo partly drawn) [Example 13, (3R)-1-{[4-(3,4-Dihydro-2H-chromen-4-yloxy)-1,2-dimethyl-1H-benzimidazol-6-yl]carbonyl}pyrrolidin-3-ol]",IC50,[1],120 nM
Cc1nc2c(OC3CCOc4ccccc43)cc(C(=O)N3CCC[C@@H]3CO)cc2n1C (stereo partly drawn) [Example 14],IC50,[1],980 nM
"Cc1nc2c(OC3CCOc4ccccc43)cc(C(=O)N3CCN(C)CC3)cc2n1C (stereo not drawn) [Example 15, 4-(3,4-Dihydro-2H-chromen-4-yloxy)-1,2-dimethyl-6-[(4-methylpiperazin-1-yl)carbonyl]-1H-benzimidazole]",IC50,[1],950 nM
"CC(=O)N1CCN(C(=O)c2cc(OC3CCOc4ccccc43)c3nc(C)n(C)c3c2)CC1 (stereo not drawn) [Example 16, 6-[(4-Acetylpiperazin-1-yl)carbonyl]-4-(3,4-dihydro-2H-chromen-4-yloxy)-1,2-dimethyl-1H-benzimidazole]",IC50,[1],140 nM
"Cc1nc2c(OC3CCOc4cc(F)cc(F)c43)cc(C(=O)N3CCCC3)cc2n1C (stereo not drawn) [Example 25, 4-[(5,7-Difluoro-3,4-dihydro-2H-chromen-4-yl)oxy]-1,2-dimethyl-6-(pyrrolidin-1-ylcarbonyl)-1H-benzimidazole]",IC50,[1],590 nM
"Cc1nc2c(OC3CCOc4cc(F)cc(F)c43)cc(C(=O)N3CC(C)(O)C3)cc2n1C (stereo not drawn) [Example 26, 1-({4-[(5,7-Difluoro-3,4-dihydro-2H-chromen-4-yl)oxy]-1,2-dimethyl-1H-benzimidazol-6-yl}carbonyl)-3-methylazetidin-3-ol]",IC50,[1],480 nM
